Legend:
[1] = Open-label multiple-dose PK, safety and tolerability study of NTZ 500 mg BID for 7 days in subjects with moderate or severe hepatic impairment vs normal hepatic function; details: for Cmax: Cmax GM; for AUC0-12 GM Ratio (Impaired/Control) / AUC0-t GM Ratio (Impaired/Control) / Cmax GM Ratio (Impaired/Control): steady state; for correlation coefficient AUC0-12 vs ALT / correlation coefficient AUC0-12 vs AST / correlation coefficient AUC0-12 vs Albumin / correlation coefficient AUC0-12 vs Bilirubin / correlation coefficient AUC0-12 vs INR / correlation coefficient Cmax vs ALT / correlation coefficient Cmax vs AST / correlation coefficient Cmax vs Albumin / correlation coefficient Cmax vs Bilirubin / correlation coefficient Cmax vs INR: highest among Pearson (P) and Spearman (S), natural (NS) and log (LS) scales, marker at screening
Protocol: The study design was an open-label, nonrandomized, 2-center, multiple-dose, parallel-group study to evaluate the PK as well as the safety and tolerability of NTZ 500 mg BID administration for 7 days in males and females patients with moderate and severe hepatic impairment as compared to matched control healthy males and females patients with normal hepatic function.
The objective was to assess the effect of hepatic impairment on the PK of tizoxanide (TZ; NTZ active metabolite), following repeated oral dose administration of NTZ 500 mg BID for 7 days in subjects with moderate or severe hepatic impairment and subjects with normal hepatic function.
The following parameters used to measure the hepatic function were considered for the evaluation of the degree of hepatic impairment on NTZ PK: Child-Pugh (CP) score (*), serum albumin, serum total bilirubin, international normalized ratio (INR), aspartate aminotransferase (AST), alanine aminotransferase (ALT).
(*) For the control match healthy subject group, CP score was not calculated, and the analysis was limited to hepatic impaired patients.
Subjects were enrolled within the following groups based on their CP score at Screening: • Group 1: Normal hepatic function • Group 2: Moderate hepatic impairment (CP Class B) • Group 3: Severe hepatic impairment (CP Class C)
On Day 1, the study subjects took 500 mg NTZ (1 tablet) with 240 mL (8 fluid ounces) of water 30 minutes after the start of the standardized breakfast. No food was allowed for at least 4 h after each dose. Blood PK samples were taken at the following timepoints: pre-dose (completed in fasted state prior to the start of the standardized breakfast), T1h, T2h, T3h, T4h, T5h, T6h, T7h, T8h, T10h and T12h post-dose.
From Day 2 to Day 6, subjects received 500 mg of nitazoxanide (1 tablet) in the morning and in the evening for 6 consecutive days and on Day 7 the last dose was administered in the morning. Pre-dose blood PK sample was collected in fasted state prior to the start of the standardized breakfast each morning from Day 2 to Day 6.
On Day 7, blood PK samples were taken at the following timepoints: Pre-dose (completed in fasted state prior to the start of the standardized breakfast), T1h, T2h, T3h, T4h, T5h, T6h, T7h, T8h, T10h, T12h, T14h and T16h post-dose. PK samples at T18h, T24h and T48h post dose were taken respectively on D8 and D9.
The primary analysis was to assess the difference in the PK parameters (Cmax, AUC0-12 and AUC0-t) of total TZ after repeated oral administration of NTZ 500 mg BID for 7 days in subjects with moderate or severe hepatic impairment and subjects with normal hepatic function.
The secondary analysis was to determine the accumulation ratios on AUC0-12 and Cmax measured after a single (Day 1) and a 7-day repeated (BID) oral administrations.
The relationship between hepatic function markers (serum albumin, serum total bilirubin, INR, AST and ALT (obtained at screening)) and PK parameters (Cmax and AUC0-12) for TZ and TZ Glu (total and unbound) were investigated and evaluated using graphical and correlation techniques.
Both Pearson (supporting a linear trend) and Spearman correlation (supporting a monotonic trend) coefficients were calculated. The correlation coefficients (p) were used to measure appropriately the association for most possible relationship and only strong correlations (i.e. p≥0.75) would support further modeling.

[2] = tested on: BDL+LPS-induced liver impairment rat model; assay: Evaluation of NTZ efficacy on BDL+LPS-induced liver impairment in rats; type: in vivo, Sprague Dawley rats
Protocol: The objective of the study was to assess the efficacy of NTZ to prevent LPS-induced inflammation, hepatic dysfunction and brain edema in fibrotic rats that underwent BDL surgery. BDL surgery was performed on 30 Sprague Dawley rats (Janvier). After anesthesia, a median laparotomy was performed to expose the liver and duodenum. The main bile duct was identified and dissected. After that, the bile duct was ligated in two parts: a first ligation was made in the middle of the bile duct, and the second ligation was made above the entrance of the pancreatic duct. The bile duct was then cut in the middle, to avoid recanalization. Fourteen days after surgery, a blood sample was collected from the sublingual vein to measure markers of hepatic injury (serum aspartate aminotransferase (AST), total bile acids and bilirubin) to stratify the animals into treatment groups. […] Two unoperated animals were included in the study as healthy controls. […] Nine rats with BDL received phosphate buffer saline (PBS, Fisher Scientific, USA) instead of LPS to be used as BDL controls. The body weight and food intake were monitored twice a week all along the study. During the fibrosis induction phase, each animal was observed once a day for the monitoring of clinical signs. Observations include changes in the skin, fur, eyes, occurrence of secretions and excretions and autonomic activity (lachrymation, piloerection, unusual respiratory pattern). Changes in gait, posture, stereotypes (e.g. excessive grooming, repetitive circling) or bizarre behavior (self-mutilation, walking backward) are also monitored. Animals were euthanized in case of weight loss of more than 25% for more than 3 consecutive days, absence of food consumption, deterioration of the general condition or vocalization. After LPS administration, each animal was continuously observed (appearance of the animal-change in fur, skin color, the degree of activity, vigilance-response to a stimulus, opening of the eyelids, activity, gait and behaviour) during 7 hours in order to assess the degree of severity of the inflammatory response and pain. Treatment with NTZ 100 mg/kg or vehicle (1% carboxymethylcellulose ([…], Sigma-Aldrich), 0.1% tween 80 ([…], Sigma-Aldrich)) was administered by gavage 1 hour before LPS injection. For oral gavage, NTZ powder was dissolved in CMC 1%, Tween 80 0.1% at the concentration of 10 mg/ml in an amber glass bottle, homogenized with a polytron and sonicated 10 seconds at a power of 10%. NTZ was kept under magnetic stirring until the administration to the rats at 10 ml/kg. LPS solution was prepared under a microbiological safety cabinet, in order to have a sterile solution to inject to rats. The LPS solution was dissolved in phosphate buffer saline (PBS) at 0.5 μg/ml, aliquoted and frozen until the day of experiment. LPS was administered at 2 ml/kg to the rats. All surviving animals were euthanized 3 h after LPS injection for plasma and tissues analyses. At the end of the study, by plasma level of hepatic function markers and cytokines, and brain edema have been evaluated.

[3] = NTZ 100 mg/kg by gavage 1 hour before LPS, blood collected 3 hours after LPS
[4] = total TZ, all groups combined, listed as Total TZ
[5] = total TZ, Moderate (CP B) vs Control
[6] = total TZ, Severe (CP C) vs Control

## CC(=O)Oc1ccccc1C(=O)Nc1ncc([N+](=O)[O-])s1 [NTZ, nitazoxanide]
[1]; NTZ 500 mg BID for 7 days
  safety in patients with hepatic impairment: safe
[2]; NTZ 100 mg/kg by gavage 1 hour before LPS, 3 h after LPS, p=0.006
  brain edema: change of brain water content compared to the BDL condition: −111%
[2]; [3]
  decrease of circulating IL-1β: 91%
  decrease of circulating IL-6: 93%
  decrease of circulating TNFα: 94%
[2]; NTZ 100 mg/kg by gavage 1 hour before LPS, euthanized 3 h after LPS, data not shown
  percentage of liver fibrosis: Neither LPS nor NTZ treatment affected the percentage of liver fibrosis
[2]; NTZ 100 mg/kg by gavage 1 hour before LPS, plasma 3 h after LPS
  LPS-induced alteration of plasma total bile acids, total bilirubin, albumin and GGT: tended to reduce the LPS-induced alteration of these markers
[2]; NTZ 100 mg/kg by gavage 1 hour before LPS, plasma 3 h after LPS, p=0.007
  reduction of plasma urea (LPS-induced renal impairment): 84%
[2]; NTZ 100 mg/kg by gavage 1 hour before LPS, plasma 3 h after LPS, p=0.01
  reduction of plasma ASAT compared to the ACLF-Veh condition: 100%
[2]; NTZ 100 mg/kg by gavage 1 hour before LPS, plasma 3 h after LPS, p=0.03
  reduction of plasma ALAT compared to the ACLF-Veh condition: 101%
[2]; NTZ 100 mg/kg, conclusions
  LPS-induced rise in ALT, change with NTZ: −101%
  LPS-induced rise in AST, change with NTZ: −100%
  LPS-induced rise in urea, change with NTZ: −84%
  brain edema: water content (in words): totally restored the water content to the level of BDL and healthy rats

## O=C(Nc1ncc([N+](=O)[O-])s1)c1ccccc1O [TZ, tizoxanide]
[1]; Day 1 and Day 7, regardless of the group
  fraction of the dose recovered in urine over 12 h: less than 1%
[1]; both, human, blood, oral, 500 mg
  Tmax: 3.5 to 5 h
[1]; both, human, blood, oral, 500 mg, AUC0-12 GM, total TZ, all groups combined (Total), DAY 1, single 500 mg NTZ dose
  AUC(0-t): 115 µM·h
[1]; both, human, blood, oral, 500 mg, AUC0-12 GM, total TZ, all groups combined (Total), DAY 7, NTZ 500 mg BID
  AUC(0-t): 183 µM·h
[1]; both, human, blood, oral, 500 mg, AUC0-12 GM, total TZ, steady state after NTZ 500 mg BID 7 days, Moderate (CP B)
  AUC(0-t): 145 µM·h
[1]; both, human, blood, oral, 500 mg, AUC0-12 GM, total TZ, steady state after NTZ 500 mg BID 7 days, Severe (CP C)
  AUC(0-t): 264 µM·h
[1]; both, human, blood, oral, 500 mg, AUC0-t GM, total TZ, steady state after NTZ 500 mg BID 7 days, Control group (normal hepatic function)
  AUC(0-t): 165 µM·h
[1]; both, human, blood, oral, 500 mg, AUC0-t GM, total TZ, steady state after NTZ 500 mg BID 7 days, Moderate (CP B)
  AUC(0-t): 150 µM·h
[1]; both, human, blood, oral, 500 mg, AUC0-t GM, total TZ, steady state after NTZ 500 mg BID 7 days, Severe (CP C)
  AUC(0-t): 297 µM·h
[1]; both, human, blood, oral, 500 mg, total TZ, all groups combined (Total), DAY 1, single 500 mg NTZ dose
  Cmax: 24.8 µM
[1]; both, human, blood, oral, 500 mg, total TZ, all groups combined (Total), DAY 7, NTZ 500 mg BID
  Cmax: 34.7 µM
[1]; both, human, blood, oral, 500 mg, total TZ, steady state after NTZ 500 mg BID 7 days, Control group (normal hepatic function)
  Cmax: 35.3 µM
[1]; both, human, blood, oral, 500 mg, total TZ, steady state after NTZ 500 mg BID 7 days, Moderate (CP B)
  Cmax: 28.2 µM
[1]; both, human, blood, oral, 500 mg, total TZ, steady state after NTZ 500 mg BID 7 days, Severe (CP C)
  Cmax: 42 µM
[1]; both, human, blood, oral, 500 mg, GM t1/2, Day 1
  half-life: ~2 h
[1]; both, human, blood, oral, 500 mg, GM t1/2, Day 7, severe impairment group
  half-life: 4 h
[1]; both, human, in vivo, oral, 500 mg, AUC0-12 GM, total TZ, steady state after NTZ 500 mg BID 7 days, Control group (normal hepatic function)
  AUC(0-t): 162 µM·h
[1]; both, human, urine, oral, 500 mg
  CL renal: 0.0333 to 0.5 mL/min
[1]; [4]
  AUC0-12 accumulation GM Ratio (Day 7/Day 1): 1.5980
  Cmax accumulation GM Ratio (Day 7/Day 1): 1.3993
[1]; total TZ, all groups combined, listed as total TZ
  Cmax accumulation GM Ratio (Day 7/Day 1): around 1.4
[1]; [5]
  AUC0-12 GM Ratio (Impaired/Control): 0.8960
  AUC0-t GM Ratio (Impaired/Control): 0.9064
  Cmax GM Ratio (Impaired/Control): 0.8008
[1]; [6]
  AUC0-12 GM Ratio (Impaired/Control): 1.6353
  AUC0-t GM Ratio (Impaired/Control): 1.7940
[1]; total TZ, Severe (CP C) vs Control, listed as Total TZ
  Cmax GM Ratio (Impaired/Control): 1.1921
[1]; total TZ, Severe (CP C) vs Control, listed as total TZ
  Cmax GM Ratio (Impaired/Control): 1.19
[1]; total analyte
  correlation coefficient AUC0-12 vs ALT: P (LS): −0.07
  correlation coefficient AUC0-12 vs AST: P (NS): 0.17
  correlation coefficient AUC0-12 vs Albumin: P (NS): −0.4
  correlation coefficient AUC0-12 vs Bilirubin: P (NS): 0.43
  correlation coefficient AUC0-12 vs INR: P (NS): 0.46
  correlation coefficient Cmax vs ALT: P (LS): −0.17
  correlation coefficient Cmax vs AST: P (LS): −0.05
  correlation coefficient Cmax vs Albumin: P (NS): −0.25
  correlation coefficient Cmax vs Bilirubin: P (NS): 0.47
  correlation coefficient Cmax vs INR: P (NS): 0.46
[1]; unbound (u-) analyte
  correlation coefficient AUC0-12 vs ALT: P (LS): −0.06
  correlation coefficient AUC0-12 vs AST: P (NS): 0.15
  correlation coefficient AUC0-12 vs Albumin: P (NS): −0.37
  correlation coefficient AUC0-12 vs Bilirubin: P (NS): 0.47
  correlation coefficient AUC0-12 vs INR: P (NS): 0.5
  correlation coefficient Cmax vs ALT: P (LS): −0.15
  correlation coefficient Cmax vs AST: S (NS): −0.09
  correlation coefficient Cmax vs Albumin: P (NS): −0.24
  correlation coefficient Cmax vs INR: P (NS): 0.49
[1]; unbound (u-) analyte, listed as u-Tizoxanide
  correlation coefficient Cmax vs Bilirubin: P (NS): 0.51
[1]; unbound (u-) analyte, listed as unbound TZ
  correlation coefficient Cmax vs Bilirubin: 0.51
